The record followed here is BindingDB's records for doi:10.1021/jm010237l (Abbott Laboratories, 2001).

For this assay, the target named is Endothelin receptor type B (Sus scrofa) (UniProt P35463). The assay is described as follows: Binding affinity against endothelin B receptor in porcine cerebellar tissue.
Endothelin receptor type B (Sus scrofa), sequence (P35463 whole entry, looked up): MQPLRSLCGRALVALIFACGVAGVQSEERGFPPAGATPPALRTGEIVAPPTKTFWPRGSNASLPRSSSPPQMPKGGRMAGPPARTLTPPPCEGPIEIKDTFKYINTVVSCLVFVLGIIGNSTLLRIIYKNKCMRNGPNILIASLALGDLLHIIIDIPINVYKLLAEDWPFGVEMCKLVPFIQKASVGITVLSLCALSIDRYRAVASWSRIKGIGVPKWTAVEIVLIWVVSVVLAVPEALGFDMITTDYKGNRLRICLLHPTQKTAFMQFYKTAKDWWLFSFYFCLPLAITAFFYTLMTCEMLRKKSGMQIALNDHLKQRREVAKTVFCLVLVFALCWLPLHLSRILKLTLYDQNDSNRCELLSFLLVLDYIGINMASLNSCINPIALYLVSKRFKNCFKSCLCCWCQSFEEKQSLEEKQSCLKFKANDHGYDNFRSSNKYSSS

Take `CCCCN(CCCC)C(=O)CN1C[C@H](c2ccc3c(c2)OCCO3)[C@@H](C(=O)O)[C@@H]1c1ccc(CC)cc1` [1-Dibutylcarbamoylmethyl-4-(2,3-dihydro-benzo[1,4]dioxin-6-yl)-2-(4-ethyl-phenyl)-pyrrolidine-3-carboxylic acid]: the IC50 was 7700 nM. In the case of `CCCCN(CCCC)C(=O)CN1C[C@H](c2ccc3c(c2)CCO3)[C@@H](C(=O)O)[C@@H]1c1ccc(CC)cc1` [1-Dibutylcarbamoylmethyl-4-(2,3-dihydro-benzofuran-5-yl)-2-(4-ethyl-phenyl)-pyrrolidine-3-carboxylic acid], the IC50 is 8130 nM. In the case of `CCCCN(CCCC)C(=O)CN1C[C@H](c2ccc3c(c2)CCO3)[C@@H](C(=O)O)[C@@H]1c1ccc(C)cc1` [1-Dibutylcarbamoylmethyl-4-(2,3-dihydro-benzofuran-5-yl)-2-p-tolyl-pyrrolidine-3-carboxylic acid] it was 12000 nM; in that of `CCCCN(CCCC)C(=O)CN1C[C@H](c2ccc3c(c2)OCC3)[C@@H](C(=O)O)[C@@H]1c1ccc(OC)cc1` [1-Dibutylcarbamoylmethyl-4-(2,3-dihydro-benzofuran-6-yl)-2-(4-methoxy-phenyl)-pyrrolidine-3-carboxylic acid], 960 nM; in that of `CCCCN(CCCC)C(=O)CN1C[C@H](c2ccc3c(c2)OCO3)[C@@H](C(=O)O)[C@@H]1c1ccc(F)c(F)c1` [4-Benzo[1,3]dioxol-5-yl-1-dibutylcarbamoylmethyl-2-(3,4-difluoro-phenyl)-pyrrolidine-3-carboxylic acid], 1040 nM.

As to `CCCCN(CCCC)C(=O)CN1C[C@H](c2ccc3c(c2)OCO3)[C@@H](C(=O)O)[C@@H]1c1ccc(OC)c(OC)c1` [4-Benzo[1,3]dioxol-5-yl-1-dibutylcarbamoylmethyl-2-(3,4-dimethoxy-phenyl)-pyrrolidine-3-carboxylic acid], the IC50 is 300 nM. As for `CCCCN(CCCC)C(=O)CN1C[C@H](c2ccc3c(c2)OCO3)[C@@H](C(=O)O)[C@@H]1c1ccc(OC)c(F)c1` [4-Benzo[1,3]dioxol-5-yl-1-dibutylcarbamoylmethyl-2-(3-fluoro-4-methoxy-phenyl)-pyrrolidine-3-carboxylic acid], the figure is 30 nM; as for `CCCCN(CCCC)C(=O)CN1C[C@H](c2ccc3c(c2)OCO3)[C@@H](C(=O)O)[C@@H]1c1ccc(CC)cc1` [4-Benzo[1,3]dioxol-5-yl-1-dibutylcarbamoylmethyl-2-(4-ethyl-phenyl)-pyrrolidine-3-carboxylic acid], 1300 nM. Consider `CCCCN(CCCC)C(=O)CN1C[C@H](c2ccc3c(c2)OCO3)[C@@H](C(=O)O)[C@@H]1c1ccc(CCC)cc1` [4-Benzo[1,3]dioxol-5-yl-1-dibutylcarbamoylmethyl-2-(4-propyl-phenyl)-pyrrolidine-3-carboxylic acid], for which the IC50 is 1130 nM. In turn, `CCCCN(CCCC)C(=O)CN1C[C@H](c2ccc3c(c2)OCO3)[C@@H](C(=O)O)[C@@H]1c1ccc(C(F)(F)F)cc1` [4-Benzo[1,3]dioxol-5-yl-1-dibutylcarbamoylmethyl-2-(4-trifluoromethyl-phenyl)-pyrrolidine-3-carboxylic acid] returned an IC50 of 14300 nM.

On to `CCCCN(CCCC)C(=O)CN1C[C@H](c2ccc3c(c2)OCO3)[C@@H](C(=O)O)[C@@H]1c1ccc(C)cc1` [4-Benzo[1,3]dioxol-5-yl-1-dibutylcarbamoylmethyl-2-p-tolyl-pyrrolidine-3-carboxylic acid], for which the IC50 came to 2140 nM. Turning to `CCCCN(CCCC)C(=O)CN1C[C@H](c2ccc3occc3c2)[C@@H](C(=O)O)[C@@H]1c1ccc(OC)cc1` [4-Benzofuran-5-yl-1-dibutylcarbamoylmethyl-2-(4-methoxy-phenyl)-pyrrolidine-3-carboxylic acid], the IC50 is 5080 nM.

In turn, `CCCCN(CCCC)C(=O)CN1C[C@H](c2ccc3c(c2)CCO3)[C@@H](C(=O)O)[C@@H]1c1ccc(OC)cc1` [(2R,3R,4S)-1-Dibutylcarbamoylmethyl-4-(2,3-dihydro-benzofuran-5-yl)-2-(4-methoxy-phenyl)-pyrrolidine-3-carboxylic acid] registered an IC50 of 2670 nM.

What is called IC50 is the point on the concentration scale where inhibition reaches its midpoint. A high value points to lower potency.
